Source: patent publication US10195196B2, “1,4-disubstituted pyridazine analogs there of and methods for treating SMN-deficiency-related conditions” (NOVARTIS AG, priority 2012, dated 2019)

System: SMN protein
Experiment: cellular SMN ELISA (SMN protein elevation)
Format: cell-based
Conditions: myoblast cell line from SMNdelta7 mouse model, 24 hours treatment; for SMN activity Fold: fold activation over DMSO control
Procedure: A cellular SMN ELISA was used to measure the effects of low molecular weight compounds on SMN protein elevation. Cells from a myoblast cell line derived from the SMNdelta7 mouse model (kind gift from Steve Burden, NYU) were seeded into a 384-well plate at a density of 3000 cells/well and treated with compounds for 24 hours. ELISA capture plates were prepared by coating 384-well plates (Immulon 4HBX) with 0.5 ug/mL of anti-SMN mAb (BD Science, Catalog number 610647) at 4° C. overnight. The plates were washed 5 times with 110 uL of PBS-Tween (0.05% Tween-20, PBST), blocked with 100 uL of 1% BSA in PBST for 2 hours and washed (5 times) with 100 uL of PBST. After 24 hours of compound treatment cells were lysed in a modified RIPA-buffer, on ice for 1 hour. 20 uL of lysate and 20 uL of 1% BSA were then added to the ELISA capture plates and incubated at 4° C. overnight. Plates were washed (5 times) with PBST and then incubated with 1:100 dilution of primary rabbit anti-SMN polyclonal antibody (Santa cruz, Catalog number SC-15320) at room temperature for 1 hour and subsequently washed (5 times) with 110 uL of PBST. This was followed by addition of 1:100 Goat anti-Rabbit IgG-HRP linked (Cell Signaling, Catalog number 7074) secondary antibody for 1 hour. Plates were then washed with PBST and incubated with 40 uL TMB substrate (Cell Signaling, Catalog number 7004L) at room temperature for 1-10 minutes with shaking. The reaction was stopped by addition of 40 uL of stop solution (Cell signaling, Catalog number 7002L) and absorption was measured at 450 nm. Data was reported as fold activation over DMSO control, and EC50.
ELISA assay condition 1: compound concentration range 20 nM-10 uM; ELISA assay condition 2: compound concentration 100 pM-10 uM.

[1] = ELISA condition 1: compound concentration range 20 nM-10 uM
[2] = ELISA condition 2: compound concentration 100 pM-10 uM

Structure (SMILES)	EC50 [1]	SMN activity Fold [1]	EC50 [2]	SMN activity Fold [2]
CN(c1ccc(-c2cc(C#N)ccc2O)nn1)C1CC(C)(C)NC(C)(C)C1 [Example 3-5, 4-hydroxy-3-(6-(methyl(2,2,6,6-tetramethylpiperidin-4-yl)amino)pyridazin-3-yl)benzonitrile]	100 nM	2.38 Fold		
CC1(C)CC(Oc2ccc(-c3cc4ccccc4cc3O)nn2)CC(C)(C)N1 [Example 3-6, 3-[6-(2,2,6,6-tetramethyl-piperidin-4-yloxy)-pyridazin-3-yl]-naphthalen-2-ol]			110 nM	3.01 Fold
CN(c1ccc(-c2cc(C(F)(F)F)ccc2O)nn1)C1CC(C)(C)NC(C)(C)C1 [Example 3-7, 2-{6-[methyl-(2,2,6,6-tetramethyl-piperidin-4-yl)-amino]-pyridazin-3-yl}-4-trifluoromethyl-phenol]	4530 nM	2.67 Fold		
CN(c1ccc(-c2cccc(F)c2O)nn1)C1CC(C)(C)NC(C)(C)C1 [Example 3-8, 2-fluoro-6-{6-[methyl-(2,2,6,6-tetramethyl-piperidin-4-yl)-amino]-pyridazin-3-yl}-phenol]			1580 nM	2.72 Fold
COc1cc(O)c(-c2ccc(N(C)C3CC(C)(C)NC(C)(C)C3)nn2)c(OC)c1 [Example 3-9, 3,5-dimethoxy-2-{6-[methyl-(2,2,6,6-tetramethyl-piperidin-4-yl)-amino]-pyridazin-3-yl}-phenol]			323 nM	2.88 Fold
COc1cc(O)c(-c2ccc(N(C)C3CC(C)(C)NC(C)(C)C3)nn2)cc1OC [Example 3-10, 4,5-dimethoxy-2-{6-[methyl-(2,2,6,6-tetramethyl-piperidin-4-yl)-amino]-pyridazin-3-yl}-phenol]			855 nM	2.53 Fold
COc1ccc(-c2ccc(N(C)C3CC(C)(C)NC(C)(C)C3)nn2)c(O)c1 [Example 3-11, 5-methoxy-2-{6-[methyl-(2,2,6,6-tetramethyl-piperidin-4-yl)-amino]-pyridazin-3-yl}-phenol]			220 nM	2.47 Fold
CN(c1ccc(-c2cc(F)c(F)cc2O)nn1)C1CC(C)(C)NC(C)(C)C1 [Example 3-12, 4,5-difluoro-2-{6-[methyl-(2,2,6,6-tetramethyl-piperidin-4-yl)-amino]-pyridazin-3-yl}-phenol]	129 nM	2.70 Fold		
C=CCc1c(O)ccc2cc(-c3ccc(N(C)C4CC(C)(C)NC(C)(C)C4)nn3)ccc12 [Example 6-1, 1-allyl-6-(6-(methyl(2,2,6,6-tetramethylpiperidin-4-yl)amino)pyridazin-3-yl)naphthalen-2-ol]			630 nM	2.04 Fold
CN1C(C)(C)CC(Nc2ccc(-c3cc4ccccc4s3)nn2)CC1(C)C [Example 7-1, 6-(benzo[b]thiophen-2-yl)-N-(1,2,2,6,6-pentamethylpiperidin-4-yl)pyridazin-3-amine]	2730 nM	2.54 Fold		
C=CCNC(=O)c1ccc(-c2ccc(N(C)C3CC(C)(C)NC(C)(C)C3)nn2)c(O)c1 [Example 8-1, N-allyl-3-hydroxy-4-(6-(methyl(2,2,6,6-tetramethylpiperidin-4-yl)amino)pyridazin-3-yl)benzamide]	280 nM	2.72 Fold		
Cc1cnc(-c2ccc(-c3ccc(N(C)C4CC(C)(C)NC(C)(C)C4)nn3)c(O)c2)o1 [Example 10-1, 5-(5-methyl-oxazol-2-yl)-2-{6-[methyl-(2,2,6,6-tetramethyl-piperidin-4-yl)-amino]-pyridazin-3-yl}-phenol]			31 nM	2.99 Fold
CN(c1ccc(-c2ccc(-n3ccnc3)cc2O)nn1)C1CC(C)(C)NC(C)(C)C1 [Example 12-1, 5-(1H-imidazole-1-yl)-2-(6-(methyl(2,2,6,6-tetramethyl-piperidin-4-yl)amino)pyridazin-3-yl)phenol]			4 nM	3.13 Fold
CN(c1ccc(-c2ccc(-n3cc(N)cn3)cc2O)nn1)C1CC(C)(C)NC(C)(C)C1 [Example 13-1, 5-(4-amino-1H-pyrazole-1-yl)-2-(6-(methyl(2,2,6,6-tetramethylpiperidin-4-yl)amino)pyridazin-3-yl)phenol]			20 nM	3.46 Fold
CN(c1ccc(-c2ccc(-c3cnn(CCN4CCOCC4)c3)cc2O)nn1)C1CC(C)(C)NC(C)(C)C1 [Example 16-1, 2-(6-(methyl(2,2,6,6-tetramethylpiperidin-4-yl)amino)pyridazin-3-yl)-5-(1-(2-morpholino-ethyl)-1H-pyrazol-4-yl)phenol]			77 nM	2.66 Fold
CN(c1ccc(-c2ccc(-c3cnn(C)c3)cc2O)nn1)C1CC(C)(C)NC(C)(C)C1 [Example 16-2, 2-(6-(methyl(2,2,6,6-tetramethylpiperidin-4-yl)amino)pyridazin-3-yl)-5-(1-methyl-1H-pyrazol-4-yl)phenol]			15 nM	3.21 Fold
CN(c1ccc(-c2ccc(-n3nccc3N)cc2O)nn1)C1CC(C)(C)NC(C)(C)C1 [Example 16-3, 5-(5-amino-1H-pyrazol-1-yl)-2-(6-(methyl-(2,2,6,6-tetramethyl-piperidin-4-yl)amino)pyridazin-3-yl)phenol]			625 nM	2.39 Fold
CN(c1ccc(-c2cc(-n3cccn3)ccc2O)nn1)C1CC(C)(C)NC(C)(C)C1 [Example 16-4, 2-(6-(methyl(2,2,6,6-tetramethylpiperidin-4-yl)amino)pyridazin-3-yl)-4-(1H-pyrazol-1-yl)phenol]			94 nM	2.71 Fold
CC1(C)CC(N(CCO)c2ccc(-c3ccc(-n4cccn4)cc3O)nn2)CC(C)(C)N1 [Example 16-5, 2-{6-[(2-hydroxy-ethyl)-(2,2,6,6-tetramethyl-piperidin-4-yl)-amino]-pyridazin-3-yl}-5-pyrazol-1-yl-phenol]			24 nM	2.41 Fold
C[C@@H]1C[C@H](Oc2ccc(-c3ccc(-n4cccn4)cc3O)nn2)C[C@H](C)N1 [Example 17-2, 2-(6-(((2S,4R,6R)-2,6-Dimethylpiperidin-4-yl)oxy)pyridazin-3-yl)-5-(1H-pyrazol-1-yl)phenol]	70 nM	2.62 Fold		
Oc1cc(-n2cccn2)ccc1-c1ccc(OC2CCNC2)nn1 (stereo not shown) [Example 17-5, 5-(1H-pyrazol-1-yl)-2-(6-(pyrrolidin-3-yloxy)pyridazin-3-yl)phenol]			2440 nM	2.78 Fold
Oc1cc(-n2cccn2)ccc1-c1ccc(OC2CCNCC2F)nn1 (stereo not shown) [Example 17-10, 2-(6-((3-fluoropiperidin-4-yl)oxy)pyridazin-3-yl)-5-(1H-pyrazol-1-yl)-phenol]			945 nM	2.03 Fold
CN1C(C)(C)CC(Oc2ccc(-c3ccc(-n4cccn4)cc3O)nn2)CC1(C)C [Example 17-11, 2-[6-(1,2,2,6,6-pentamethyl-piperidin-4-yloxy)-pyridazin-3-yl]-5-pyrazol-1-yl-phenol]			665 nM	3.01 Fold
Oc1cc(-n2cccn2)ccc1-c1ccc(N2CCNCC2)nn1 [Example 18-1, 2-(6-piperazin-1-yl-pyridazin-3-yl)-5-pyrazol-1-yl-phenol]			296 nM	3.07 Fold
Oc1cc2ccccc2cc1-c1ccc(NC2CNC2)nn1 [Example 18-2, 3-[6-(azetidin-3-ylamino)-pyridazin-3-yl]-naphthalen-2-ol]			3230 nM	1.97 Fold
Oc1cc(-n2cccn2)ccc1-c1ccc(NC2CNC2)nn1 [Example 18-3, 2-[6-(azetidin-3-ylamino)-pyridazin-3-yl]-5-pyrazol-1-yl-phenol]	660 nM	1.95 Fold		
CC1CN(c2ccc(-c3ccc(-n4cccn4)cc3O)nn2)CC(C)N1 (stereo not shown) [Example 18-4, 2-[6-(3,5-dimethyl-piperazin-1-yl)-pyridazin-3-yl]-5-pyrazol-1-yl-phenol]			388 nM	2.84 Fold
CN1CCC2(CCN(c3ccc(-c4ccc(-n5cccn5)cc4O)nn3)C2)C1 (stereo not shown) [Example 18-5, 2-[6-(7-methyl-2,7-diaza-spiro[4.4]non-2-yl)-pyridazin-3-yl]-5-pyrazol-1-yl-phenol]			151 nM	2.66 Fold
Oc1cc(-n2cccn2)ccc1-c1ccc(N2CCCNCC2)nn1 [Example 18-6, 2-(6-[1,4]diazepan-1-yl-pyridazin-3-yl)-5-pyrazol-1-yl-phenol]			268 nM	2.54 Fold
